This series is described as follows: gradient 5% acetonitrile 3 min, to 50% in 2 min, to 85% in 15 min, held 3 min, 100 µL/min. Particulars: column: Zorbax Extend-C18 2.1 x 50 mm; eluents: water / acetonitrile, 0.1% formic acid. Summed up:
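Each retention time is based on an adduct peak selected computationally and verified by manual inspection. Measurements used HPLC–quadrupole time-of-flight mass spectrometry in positive and negative ionization mode on mixtures of ~100 pure standards. Chromatography ran on a Zorbax Extend-C18 column (2.1 × 50 mm, 1.8 μm) at 100 μL/min with water and acetonitrile, each containing 0.1% formic acid, and dead and dwell volumes of 40 μL and 900 μL.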
For the molecule `CCCNC(=O)N1CCCN(C2=NS(=O)(=O)C(c3ccc(CC)cc3)=C2C)CC1`, the RP-LC retention time worked out at 809 s.
In the case of `COc1cn2c(cc1=O)C(=O)N(CCNC(=O)c1cc(=O)c3ccccc3o1)CC2`, the RP-LC retention time came to 562 s.
`Fc1ccc(-c2csc(Nc3cccnc3)n2)cc1`: the RP-LC retention time worked out at 669 s.
As for `COc1ccc(NC(=O)N2CCCC2C(=O)Nc2ccc(C)c(Cl)c2)cc1` (stereo unspecified), the figure is 880 s; as for `Cc1ccc(C(=O)N2CCc3c(c(C(=O)N4CCCC(C(=O)NC5CC5)C4)nn3C)C2)cc1` (stereo unspecified), 661 s.
With `COc1cccc(-n2cc(-c3nc(-c4ccccn4)no3)c3ccccc3c2=O)c1`, the RP-LC retention time worked out at 966 s.
As for `COc1cccc(-c2cc3c(=O)n(Cc4nc(-c5ccc(Cl)cc5)no4)ccn3n2)c1`, the figure is 1120 s.
On to `O=C(Cc1ccc2ccccc2c1)Nc1nnc(-c2ccno2)o1`, for which the RP-LC retention time stood at 558 s.
`COc1ccc(NC(=O)C2CCN(c3cnc4nccnc4c3)CC2)cc1Cl` showed an RP-LC retention time of 712 s.
`COc1cc(C)c(C)cc1S(=O)(=O)Nc1ccc(Cl)c(N2CCCS2(=O)=O)c1` came in with an RP-LC retention time of 1080 s.
In turn, `Cc1cc(C)cc(C(=O)NCc2nn(C)c3ccccc23)c1` displayed an RP-LC retention time of 854 s.
The molecule `COc1ccccc1Cc1noc(C2CN(S(=O)(=O)c3ccc(F)c(Cl)c3)C2)n1` gave an RP-LC retention time of 1030 s.
`Cc1nnc(-c2cn(CC(=O)NCc3ccccc3Cl)c3ccccc23)o1`: the RP-LC retention time turned out to be 821 s.
Turning to `Cc1ccc(-c2ccc(N3CCCC(C(=O)NC4CCCC4)C3)nn2)cc1C` (stereo unspecified), the RP-LC retention time is 738 s.
In the case of `O=c1cc(CSc2nc(NCc3ccc4c(c3)OCO4)c3ccccc3n2)nc2ccccn12`, the RP-LC retention time is 635 s.
`CC1=C(c2ccc(F)cc2)S(=O)(=O)N=C1N1CCCN(C(=O)c2ccc(F)cc2)CC1` registered an RP-LC retention time of 835 s.
The molecule `COc1ccc(NC(=O)Cn2c(=O)n(-c3ccc(F)cc3)c(=O)c3c2cc(C)n3C)cc1Cl` displayed an RP-LC retention time of 873 s.
On to `CCNC(=O)C1(C)CC(c2ccccc2)=NO1` (stereo unspecified), for which the RP-LC retention time turned out to be 732 s.
The molecule `COCCCNC(=O)CCc1cc2cc(OC)ccc2[nH]c1=O` showed an RP-LC retention time of 611 s.
In the case of `COc1ccc2c(c1)C1(CCN(C(=O)c3cccc(OC)c3OC)C1)C(=O)N2C` (stereo unspecified), the RP-LC retention time was 737 s.
`O=C(c1cccs1)N1CCCn2cc(-c3ccccc3F)nc21` registered an RP-LC retention time of 666 s.
On to `O=C(Cc1nc(-c2cccnc2)n[nH]1)NCCc1ccccc1`, for which the RP-LC retention time was determined as 588 s.
`O=C(C1CCCN(c2ncnc3c2nc2n3CCCCC2)C1)N1CCN(Cc2ccccc2)CC1` (stereo unspecified): the RP-LC retention time turned out to be 615 s.
As for `COc1ccc2c(c1)C=C(C(=O)NC1CCCC1)C=CO2`, the figure is 918 s; as for `Cc1cc(-c2ncc(CC(=O)Nc3ccc(-c4cnccn4)cn3)cc2C)ccn1`, 652 s.
On to `CCOc1ccc(-c2cc3c(=O)n(Cc4nc(-c5ccc6c(c5)OCO6)no4)ncn3n2)cc1`, for which the RP-LC retention time is 1100 s.
`O=C1CC2(CCN(C(=O)C3CC(=O)N(c4ccc(Cl)cc4)C3)CC2)Oc2ccccc21` (stereo unspecified) came in with an RP-LC retention time of 831 s.
`COc1ccc(Cl)cc1NC(=O)Nc1ccccc1NC(=O)c1ccco1` registered an RP-LC retention time of 873 s.
For the molecule `COc1cccc(NC(=O)c2cc(C)n3nccc3n2)c1`, the RP-LC retention time worked out at 874 s.
The result for `CSc1cccc(NC(=O)Cn2c(=O)c(CCC(=O)NCC(C)C)nc3ccccc32)c1` reads 846 s; that for `CCn1c(N2CCN(C(=O)Nc3cc(OC)cc(OC)c3)CC2)nc2ccccc21`, 660 s; that for `COc1cc2nc(C(=O)N3CCCCC3)cc(Nc3ccc(F)c(Cl)c3)c2cc1OC`, 735 s.
Turning to `N=C(N)c1ccc2cc(OC(=O)c3ccc(N=C(N)N)cc3)ccc2c1`, the RP-LC retention time came out at 595 s.
Consider `Cc1ccc(C(=O)CC2(O)C(=O)Nc3ccc(F)cc32)cc1C` (stereo unspecified), for which the RP-LC retention time was 776 s.
As for `O=S(=O)(c1ccc(F)cc1)N1CCc2nc(-c3ccc(Cl)cc3)ncc2C1`, the figure is 1170 s; as for `Cc1cc(C)n(-c2cc(NC(C)C)ncn2)n1`, 756 s; as for `CCCN(C)c1ccc2ncc(=O)n(C)c2n1`, 923 s.
`Cc1ccc(C)c(NC(=O)C2CCN(S(C)(=O)=O)c3ccccc3O2)c1` (stereo unspecified) returned an RP-LC retention time of 943 s.
Turning to `C=CCn1c(=O)c2ccccc2n(Cc2nc(-c3ccc(F)cc3)no2)c1=O`, the RP-LC retention time was found to be 1050 s.
Consider `COc1cc(OC)cc(-c2nc(-c3cn(-c4cccc(F)c4)nn3)no2)c1`, for which the RP-LC retention time was 1090 s.
Consider `CN(C)CC1CN(C(=O)c2ccc3c(c2)OCO3)CC12CCOCC2` (stereo unspecified), for which the RP-LC retention time was 562 s.
`CCCCN(C)C(=O)Cn1c(=O)c2cnc(-c3ccc(Cl)cc3)nc2n(CC)c1=O` registered an RP-LC retention time of 1190 s.
The molecule `Nc1ccc(-c2nc3ccccc3s2)cc1` registered an RP-LC retention time of 803 s.
The molecule `CCOc1ccc(CN2C(=O)C3(CCOCC3)CC2c2nnnn2C(C)(C)C)cc1` (stereo unspecified) gave an RP-LC retention time of 833 s.
In turn, `COC(=O)C1=CN(C2CC2)c2cc(N3CCCC(C)C3)c(F)cc2S1(=O)=O` (stereo unspecified) came in with an RP-LC retention time of 1010 s.
The result for `CC(=O)Nc1nsc(N2CCC(C(=O)NCc3ccc4c(c3)OCO4)CC2)n1` reads 641 s; that for `NC(=O)c1ccccc1NC(=O)C1CN(c2nc3c(F)cccc3s2)C1`, 706 s; that for `Cc1[nH]c2ccccc2c1CCNCc1ccc(/C=C/C(=O)NO)cc1`, 659 s.
For `CCc1nc2cc(-c3noc(Cc4ccc(Cl)cc4)n3)ccc2o1`, the RP-LC retention time was found to be 1140 s.
The molecule `CCN1CCN(c2cc(C)nc3nc(-c4ccc(C(C)(C)C)cc4)nn23)CC1` registered an RP-LC retention time of 677 s.
For the molecule `Cc1cccc(C)c1NC(=O)Cn1nc(N2CCSCC2)c2ccccc2c1=O`, the RP-LC retention time came out at 892 s.
The result for `O=C(CN1C(=O)CC(c2cccs2)=Nc2ccccc21)Nc1ccccc1F` reads 910 s; that for `COC(=O)c1ncn2c1C(=O)N(c1cccc(C)c1C)C(C)(C(=O)NC1CCCC1)C2` (stereo unspecified), 734 s; that for `O=C1CCc2cc(NC(=O)c3ccc(-c4ccccc4)cc3)ccc2N1`, 760 s.
Molecule `Cc1ccc(-c2nc3n(c2CNC(=O)c2ccco2)CCS3)cc1` showed an RP-LC retention time of 639 s.
With `COC(=O)c1cc(OCC(=O)Nc2cccc(OC)c2)c2cc(OC)ccc2n1`, the RP-LC retention time is 811 s.
In turn, `COc1ccc(C2CC(=O)c3c([nH]c(C(=O)OCC4CCCO4)c3C)C2)cc1OC` (stereo unspecified) gave an RP-LC retention time of 846 s.
The result for `Cc1noc(COC2CCCN(C(=O)c3ccc(Cl)s3)C2)n1` (stereo unspecified) reads 801 s; that for `Cc1ccc(Nc2c(-c3ccc(C)cc3)nc3ncccn23)cc1`, 802 s; that for `Cc1ccc2nc(SCC(=O)N3CCCCC3)[nH]c2c1`, 590 s.
As for `COC(=O)c1scc(C)c1NC(=O)C(C)NC(C)C` (stereo unspecified), the figure is 618 s; as for `COc1ccc(NS(=O)(=O)c2ccc(-c3c(C)noc3C)cc2)cc1OC`, 806 s; as for `CCC(C)NC(=O)c1c(C)oc2ccn(Cc3ccc(F)cc3)c(=O)c12` (stereo unspecified), 1040 s.
As for `O=C(c1cc2ccccc2o1)N1CCN(Cc2ccsc2)CC1`, the figure is 578 s.
The molecule `CCC1CN2C=Nc3oc(C)c(C(=O)Nc4ccc5c(c4)OCO5)c3C2=N1` (stereo unspecified) registered an RP-LC retention time of 632 s.
Take `O=C(NCCc1c[nH]c2ccccc12)c1cn(-c2ccc(F)cc2)nn1`: the RP-LC retention time came to 898 s.
As for `O=C(Nc1ccc(F)c(Cl)c1)c1nc2ncccn2n1`, the RP-LC retention time was 729 s.
For `CCc1nc2cc(-c3noc(-c4cccs4)n3)ccc2o1`, the RP-LC retention time amounted to 1080 s.
Molecule `Cc1ccccc1-c1csc2c(=O)n(CC(=O)OC(C)(C)C)cnc12` yielded an RP-LC retention time of 1060 s.
In turn, `COc1cccc(-c2noc(CCn3nc(-c4cccc(Cl)c4)ccc3=O)n2)c1OC` registered an RP-LC retention time of 947 s.
Take `Cc1ccc(CNC(=O)C2CCc3sc(C(=O)N(C)C)cc3C2)cc1` (stereo unspecified): the RP-LC retention time turned out to be 692 s.
The result for `COc1ccc(C2C(C(=O)NC3CCCCCC3)CCC(=O)N2c2ccc(OC)cc2)cc1` (stereo unspecified) reads 807 s; that for `CCN1CCCn2cc(S(=O)(=O)Nc3ccc(Cl)cc3C)cc2C1=O`, 790 s; that for `COCCNC(=O)Cn1c(C(F)(F)F)nc2cc3c(cc21)OCCO3`, 641 s.
`O=C(NC1CCN(c2ccc(N3CCCCCC3)nn2)CC1)c1ccc(F)c(F)c1`: the RP-LC retention time was found to be 682 s.
`CSc1ccc(-c2nc3ccc(C)cn3c2Nc2ccc(Cl)cc2)cc1` registered an RP-LC retention time of 693 s.
On to `O=C(Nc1ccc(Cl)c(Cl)c1)N1CCN(c2ncc(C(F)(F)F)cc2Cl)CC1`, for which the RP-LC retention time turned out to be 940 s.
As to `CCOC(=O)Cc1ccc(NC(=O)N2CCCC2c2cc(C)on2)cc1` (stereo unspecified), the RP-LC retention time turned out to be 807 s.
Regarding `CC(C)(Oc1ccc(Cl)cc1)C(=O)OCn1nnc2ccccc2c1=O`, the RP-LC retention time came to 1010 s.
In turn, `Cc1ccc(NC(=O)N2CC(n3ccnc3)C2)cc1C` registered an RP-LC retention time of 604 s.
`Cc1ccsc1C(=O)N1CCc2nn(C)c(=O)n2CC1`: the RP-LC retention time was determined as 610 s.

Source of the values: the METLIN SMRT retention time set (Domingo-Almenara et al. 2019).
